According to US12091423B2, “Substituted 3,4,12,12a-tetrahydro-1H-[1,4]oxazino[3,4-c]pyrido[2,1-f][1,2,4]triazine-6,8-dione, pharmaceutical composition, method for the production and use thereof” (VIRIOM, INC., priority 2019, dated 2024):

System: influenza A/Perth/265/2009 (H1N1pdm09) (H275Y)
Type: cell-based, influenza A virus

Question: With `O=C1c2c(O)c(=O)ccn2N([C@@H]2c3ccc(F)c(F)c3CSc3ccsc32)[C@@H]2COCCN12` [1.3.2, (12aR)-7-hydroxy-12-[(10R)-6,7-difluoro-5,10-dihydrothieno[3,2-c][2]benzothiepin-10-yl]-3,4,12,12a-tetrahydro-1H-[1,4]oxazino[3,4-c]pyrido[2,1-f][1,2,4]triazine-6,8-dione] as the compound, how does the EC50 read?
Answer: 0.8 nM
